Results: patent publication US5547870A, “Oxalate decarboxylate” (Zeneca Limited, priority 1994, dated 1996)
Where a name gives a salt, the structure may show the parent alone. Blank lines part the entries; values can stand above or below the molecule they belong to.

What was measured:
[1] = molecular target: T1, Collybia velutipes oxalate decarboxylase, purified native enzyme, peak A (eluting at pH 3.3 on chromatofocusing) (Flammulina velutipes, UniProt Q9UVK4); assay: Oxalate decarboxylase assay: liberation of 14CO2 from [14C]-oxalic acid; Lineweaver-Burk plots; assay type: biochemical, Collybia velutipes (strain S. A.T.C.C 13547)
T1 construct: chromatofocusing peak A (pH 3.3); about 55 kDa when deglycosylated
T1 sequence (Q9UVK4 21-447): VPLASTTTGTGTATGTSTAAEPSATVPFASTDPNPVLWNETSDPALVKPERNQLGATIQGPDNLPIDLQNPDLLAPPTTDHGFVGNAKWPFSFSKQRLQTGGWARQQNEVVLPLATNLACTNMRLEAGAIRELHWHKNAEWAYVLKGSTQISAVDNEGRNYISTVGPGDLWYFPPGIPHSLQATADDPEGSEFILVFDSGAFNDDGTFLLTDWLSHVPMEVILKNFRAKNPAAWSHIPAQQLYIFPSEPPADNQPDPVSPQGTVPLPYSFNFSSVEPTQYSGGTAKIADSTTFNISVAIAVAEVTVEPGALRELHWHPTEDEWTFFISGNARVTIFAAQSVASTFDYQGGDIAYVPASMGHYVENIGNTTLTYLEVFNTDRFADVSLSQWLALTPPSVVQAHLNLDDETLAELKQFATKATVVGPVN
Description: (§1) The oxalate decarboxylase activity was also determined by measuring the liberation of ^14 CO2 from [^14 C]-oxalic acid (Amersham, 4.1 mCi/mmol). The enzyme assay was carried out in small glass vails which contained 1 ml of the following reaction mixture: 0.2M potassium citrate, pH 3.0, 0.005M potassium oxalate, pH 3.0, 5.6 nmoles (0.0227 μCi) of (^14 C)-oxalic acid and 0.2 ml of enzyme solution. The tubes were preincubated for 5 min before the addition of enzyme. The tubes were sealed with rubber-stoppers and incubated at 37° C. for 30 min in a shaking water bath. The reaction was terminated by injection of 0.2 ml of 50% v/v trichloroacetic acid through the rubber caps and the tubes were shaken for additional 60 min to trap all the ^14 CO2 evolved in the 0.2 ml methylbenzethonium hydroxide(Sigma) placed in a plastic vial inside the glass tube. The plastic wells were withdrawn and the contents transferred to 5 ml of toluene based scintillation fluid and radioactivity determined in a liquid scintillation counter. Blanks tubes were set up in which the 0.2 ml of 50% TCA was added before the enzyme or the enzyme was omitted. In kinetic experiments, the values were corrected for the radioactivity obtained from the boiled denatured enzyme.
(§2) One unit was defined as the amount of enzyme releasing 1 μmole of ^14 CO2 per min at 37° C. under standard assay conditions. The overall assay efficiency was usually between 60-70%. Protein was determined by Lowry microassay method (Peterson, Anal. Biochem. 83:346 (1977)). Vmax and Km were determined by Lineweaver-Burk plot (Lineweaver and Burk, J. Am. Chem. Soc. 56:658-666 (1934)).

[2] = substrate: O=C(O)C(=O)O; assay: as above; assay type: biochemical, Collybia velutipes (strain S. A.T.C.C 13547); settings: other: peak A enzyme, Lineweaver-Burk plot, 0.2M potassium citrate pH 3.0, 37° C.
Description: as §1, with “The reaction was terminated by injection of 0.2 ml of 50% v/v trichloroacetic acid through the rubber caps and the tubes were shaken for additional 60 min to trap all the ^14 CO2 evolved in the 0.2 ml methylbenzethonium hydroxide(Sigma) placed in a plastic vial inside the glass tube.” left out, “Blanks tubes were set up in which the 0.2 ml of 50% TCA was added before the enzyme or the enzyme was omitted.” left out
as §2, with “The overall assay efficiency was usually between 60-70%.” left out

Molecule: O=C(O)CI [iodoacetate]
- activity at 50000 µM ([1]; read-out: activity retained in the presence of sulfhydryl group reagent): 95%

Molecule: O=S(=O)(O)c1cc[c]([Hg][Cl])cc1 [p-chloromercuribenzenesulfonic acid]
- activity retained in the presence of sulfhydryl group reagent ([1]; 50 mM reagent): 95%

- Ki ([1]; competitive inhibition, 90 mM PO4^2- added to the reaction, read-out: Ki (phosphate ions)): 9 mM
Molecule: O=P(O)(O)O [phosphate ions, phosphate]

- Vmax ([1]; peak A enzyme, potassium oxalate as substrate, Lineweaver-Burk plot, pH 3.0, 37° C.): 166 µmol/min/mg
Molecule: O=C(O)C(=O)O [potassium oxalate]

B1: Collybia velutipes oxalate decarboxylase, purified native enzyme, peak A (eluting at pH 3.3 on chromatofocusing) (Flammulina velutipes) (protein)
chain: VPLASTTTGTGTATGTSTAAEPSATVPFASTDPNPVLWNETSDPALVKPERNQLGATIQGPDNLPIDLQNPDLLAPPTTDHGFVGNAKWPFSFSKQRLQTGGWARQQNEVVLPLATNLACTNMRLEAGAIRELHWHKNAEWAYVLKGSTQISAVDNEGRNYISTVGPGDLWYFPPGIPHSLQATADDPEGSEFILVFDSGAFNDDGTFLLTDWLSHVPMEVILKNFRAKNPAAWSHIPAQQLYIFPSEPPADNQPDPVSPQGTVPLPYSFNFSSVEPTQYSGGTAKIADSTTFNISVAIAVAEVTVEPGALRELHWHPTEDEWTFFISGNARVTIFAAQSVASTFDYQGGDIAYVPASMGHYVENIGNTTLTYLEVFNTDRFADVSLSQWLALTPPSVVQAHLNLDDETLAELKQFATKATVVGPVN
notes: chromatofocusing peak A (pH 3.3); about 55 kDa when deglycosylated
- Km [2]: 4.5 mM
- Vmax [2]: 166 µmol/min/mg
